In PMC5650530 (ACS chemical biology, 2017):
Where two headings read alike, the source gives them in different places.

What was measured:
[1] = biological target: T1, PTGR2 (Homo sapiens, UniProt Q8N8N7); assay: 15-keto PGE2 substrate assay with recombinant PTGR2 protein; assay type: biochemical; settings: read-out: IC50, inhibition of dhk-PGE2 production, 15-keto PGE2 and NADPH, 95% CI 4.4–16 μM
Target sequence in this assay (Q8N8N7 whole entry): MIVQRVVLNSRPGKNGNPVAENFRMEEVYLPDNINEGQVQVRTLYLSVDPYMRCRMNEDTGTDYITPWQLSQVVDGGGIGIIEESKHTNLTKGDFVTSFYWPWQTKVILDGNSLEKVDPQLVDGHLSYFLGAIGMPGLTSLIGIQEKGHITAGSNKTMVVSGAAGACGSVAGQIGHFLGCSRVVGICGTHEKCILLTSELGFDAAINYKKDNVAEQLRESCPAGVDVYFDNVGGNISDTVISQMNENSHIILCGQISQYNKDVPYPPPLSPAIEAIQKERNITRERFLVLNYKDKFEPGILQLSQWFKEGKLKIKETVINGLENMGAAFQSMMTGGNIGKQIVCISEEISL

[2] = biological target: T1, PTGR2; assay: 15-keto PGE2 reductase activity of PTGR2-transfected HEK293T cell lysates; assay type: biochemical; settings: read-out: IC50, inhibition of 15-keto PGE2 reductase activity; lysates from HEK293T cells transfected with PTGR2; 95% CI 1.4–2.4 μM
Target sequence in this assay (Q8N8N7 whole entry, species assumed): as the sequence (Q8N8N7 whole entry) above

[3] = biological target: T1, PTGR2; assay: LiPIP; assay type: binding; settings: KDT501 25 and 50 μM; A-DA or AEA-DA probe 10 μM; HEK293T cells
Target sequence in this assay (Q8N8N7 whole entry): as above

[4] = test system: PPAR-γ; settings: cited from earlier work
[5] = biological target: T2, BAIAP2 (Homo sapiens, UniProt Q9UQB8); assay: LiPIP; assay type: binding; settings: KDT501 25 and 50 μM; A-DA or AEA-DA probe 10 μM; HEK293T cells
T2 sequence (Q9UQB8 1-552): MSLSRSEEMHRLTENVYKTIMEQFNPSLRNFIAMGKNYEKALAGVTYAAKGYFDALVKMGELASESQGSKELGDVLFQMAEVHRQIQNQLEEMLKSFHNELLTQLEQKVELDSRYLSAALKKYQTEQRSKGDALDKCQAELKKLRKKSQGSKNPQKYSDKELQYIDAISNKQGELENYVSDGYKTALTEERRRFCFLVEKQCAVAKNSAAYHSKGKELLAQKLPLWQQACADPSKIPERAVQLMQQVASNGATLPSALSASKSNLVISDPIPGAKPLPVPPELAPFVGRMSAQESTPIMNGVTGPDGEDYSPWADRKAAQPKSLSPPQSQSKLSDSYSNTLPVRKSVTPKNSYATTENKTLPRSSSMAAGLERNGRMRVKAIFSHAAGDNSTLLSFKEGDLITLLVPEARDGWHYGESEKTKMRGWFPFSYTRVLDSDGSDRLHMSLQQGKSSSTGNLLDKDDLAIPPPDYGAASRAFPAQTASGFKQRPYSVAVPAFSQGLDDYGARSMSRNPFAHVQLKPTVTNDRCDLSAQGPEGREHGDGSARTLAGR

[6] = biological target: T1, PTGR2; assay type: binding; settings: read-out: IC50, blockade of A-DA probe labeling of recombinant PTGR2; transfected cell lysates; A-DA 5 μM; 95% CI 3.0–5.3 μM
Target sequence in this assay (Q8N8N7 whole entry, species assumed): as the sequence (Q8N8N7 whole entry) above

[7] = reference not given; cited from earlier work

IC50 [1]: 8.4 µM
IC50 [2]: 1.8 µM
blockade of lipid probe enrichment of PTGR2 [3]: substantive blockade of enrichment
blockade of lipid probe enrichment of BAIAP2 [5]: substantive blockade of enrichment
IC50 [6]: 4 µM
SMILES: CC(C)CCC(=O)[C@]1(O)C(=O)[C-](C(=O)CC(C)C)C(=O)[C@H]1CCC(C)C.[K+] (stereo partly shown) [KDT501]
agonism of PPAR-γ [4]: weak agonist
moderately potent activity in cells (concentration) [7]: 10 to 50 µM
